Experimental data: patent US12371434B2, “MLL1 inhibitors and anti-cancer agents” (NOVARTIS AG, priority 2020, dated 2025)
pIC50: −log10 of the molar value.

What was measured:
[1] = tested on: MV4-11 cells; experiment: MV4-11 6-day cell growth CTG (CellTiter-Glo) assay; assay type: cell-based; details: Homo sapiens, 144 h, 6 days
Procedure: MV4-11 6-Day Cell Growth CTG (CellTiter-Glo) Assay
Acute myeloid leukemia cell MV4-11 (ATCC® CRL-9591™) was cultured with RPMI 1640 medium (Thermo Fisher Scientific, cat #11875) supplemented with 10% FBS (Thermo Fisher Scientific, cat #10099141) in humidified incubator at 37° C., 5% CO2. To assess the effect of MLL1 inhibition on cell growth, the compound of the present invention was dissolved in DMSO and serially diluted at 1:3 for 12 points starting from 10 mM then 200 nL for the replicate of each dose per well was dispensed to Viewplate-384 Black (Perkin Elmer). Exponentially growing MV4-11 cells were seeded at the density of 300 cells per well in 40 μL to the plate, so the final compound working concentration starts from 50 μM. After 6 days, 40 μL CellTiter-Glo (Promega, cat #G7573) was added into the cell culture well and luminescence was read with Envision (Perkin Elmer) to determine the viable cells. The percentage inhibition was calculated against the samples treated with DMSO only and the data were used for dose response curve fitting in GraphPad Prism to get the IC50 of representative compound of present invention, which reflects the inhibition of MLL1 activity.

[2] = target: wild type MLL1 five-member complex (MLL1-5C) (Homo sapiens, UniProt Q03164); experiment: MLL1 Flashplate assay; assay type: biochemical; details: 2.5 nM MLL1-5C, 0.5 μM 3H-SAM, 1 μM H3K4me0; read-out: MLL1 flash plate
Procedure: MLL1 Flashplate Assay To assess the compound potency in MLL1 Flashplate assay, compounds were serially diluted 3-fold in DMSO to obtain a total of twelve concentrations. Then the test compounds at each concentration (250 nL of each) were transferred by Mosquito into Corning #3675 384-well plate. Solutions (15 μL) of 4.2 nM wild type MLL1 five-member complex (MLL1-5C) in the assay buffer (20 mM Tris-HCl, pH8.0, 0.01% Tween 20, 1 mM DTT, 0.01% BSA) were added to the wells. A 10 μL solution of 2.5 μM of the peptide substrate H3K4me0 (histone H3[1-21]-Biotin) and 1.25 μM ^3H-SAM in the reaction buffer was then added to initiate each reaction. The final components in the reaction solution include 2.5 nM MLL1-5C, 0.5 μM ^3H-SAM, and 1 μM H3K4me0 with varying concentration of the compounds. A positive control consisted of 2.5 nM MLL1-5C, 0.5 μM ^3H-SAM, and 1 μM substrate in the absence of the test compound, and a negative control consisted of 0.5 μM ^3H-SAM, and 1 μM substrate only. Each reaction was incubated at rt for 90 min, then stopped by addition of 5 μL per of quench solution (0.5 mM SAM in assay buffer). 25 μL of each reaction solution was transferred to FlashPlate streptavidin 384-well microplate (PerkinElmer). After at least 1 h incubation at rt, the wells were washed three times with 0.1% Tween-20 in dH2O using the BioTek plate washer. The plates were then read in MicroBeta (PerkinElmer). The radioactive readouts were then normalized based on the values coming from the positive and negative controls to give percent enzyme activities. The data were then fit to a dose response equation using the program Helios to get the IC50 values of the test compounds.

[3] = tested on: H3K4me3 in MV4-11 cells; experiment: MV4-11 H3K4Me3 cellular ELISA assay; assay type: cell-based; details: Homo sapiens, 48 hours, H3K4me3 signal normalized to total H3
Procedure: MV4-11H3K4Me3 Cellular ELISA Assay
MV4-11 (ATCC® CRL-9591™) was cultured with RPMI1640 medium (Thermo Fisher Scientific, cat #11875) supplemented with 10% FBS (Thermo Fisher Scientific, cat #10099141) and 50 U/ml Penicillin-Streptomycin (Thermo Fisher Scientific, cat #10378016) in humidified incubator at 37° C., 5% CO2.
200 nL compounds dissolved in DMSO were serially diluted at 1:3 ratio for 12 points starting from 10 mM and dispensed into each wells of cell culture plates (PDL-coated ViewPlate-384 Black, FTC, PerkinElmer, #6007710). 3,750 MV4-11 cells in 40 μL culture medium were seeded into each well and treated with desired concentration for 48 hours. After treatment, wash cells with cold phosphate based buffer (PBS, pH 7.4) and aspirate the remaining PBS buffer. Crude histone lysate was extracted by 40 μL 0.5M HCl for 1 hour in 4° C. following neutralization by adding 32 μL neutralization buffer (0.5M Sodium phosphate dibasic, pH˜12.5, 1.25 mM Dithiothreitol, Promega #V3151, Protease Inhibitor Cocktail, Sigma #8340) for each well. 5 μL and 20 μL of histone lysate was loaded to ELISA plate (384 Well Plates, PE HB, White, 6005620) for detection of total H3 and H3K4me3, respectively. Shake the plates gently in 4° C. for overnight. After histone binding, plates were washed with 80 μL PBS/T (PBS with 0.05% Tween-20) and blocked with 50 μL 3% BSA diluted in PBS/T per well for 1 hour. Incubate wells with primary antibody for 1 hour at room temperature using anti-H3K4me3 (CST #9727) and anti-total H3 (CST #9715) diluted 1:2000 in 3% BSA. Plates were then washed with PBS/T for 3 times and incubated with horseradish peroxidase (HRP) conjugated secondary antibody (CST #7074, 1:5000) for 1 hour at room temperature. The abundance of H3K4me3 and total H3 were measured by ECL substrates chemiluminesce (Pierce, #34080) on a plate reader (PerkinElmer EnVison 2104 Mutilable Reader). Percentage inhibition was calculated against DMSO control after normalization of H3K4me3 signal to H3 signal for individual samples. The data were then fit to a dose response curve using GraphPad Prism for IC50 calculation.

[4] = target: wild type MLL1 four-member complex (MLL1-4C) (Homo sapiens, UniProt Q03164); experiment: MLL1 LC-MS assay; assay type: biochemical; details: 30 nM MLL1-4C, 2.5 μM SAM, 10 μM H3K4me0; SAH production by LC-MS/MS; read-out: MLL1 LCMS
Procedure: The compounds of the present disclosure were serially and separately diluted 3-fold in DMSO to obtain a total of eight or twelve concentrations. Then the test compounds at each concentration (120 nL of each) were transferred by Mosquito into white Proxiplate plus 384-well microplate (PerkinElmer). Solutions (6 μL) of 60 nM wild type MLL1 four-member complex (MLL1-4C) and 5 μM SAM in the reaction buffer (20 mM Tris-HCl, pH8.0, 0.01% Tween 20, 1 mM DTT, 10 mM MgCl2, 0.01% BSA) were added to the wells that were then incubated with the test compound for 20 min. A 6 μL solution of 20 μM of the peptide substrate H3K4me0 (histone H3[1-21]-Biotin) in the reaction buffer was added to initiate each reaction. The final components in the reaction solution include 30 nM MLL1-4C, 2.5 μM SAM, and 10 μM H3K4me0 with varying concentration of the compounds. A positive control consisted of 30 nM MLL1-4C, 2.5 μM SAM, and 10 μM substrate in the absence of the test compound, and a negative control consisted of 2.5 μM SAM, and 10 μM substrate only. Each reaction was incubated at rt for 120 min, then stopped by addition of 3 μL per of quench solution (2.5% TFA with 320 nM d4-SAH). The reaction mixture was centrifuged (Eppendorf centrifuge 5810, Rotor A-4-62) for 2 min at 2000 rmp. The SAH production from the enzymatic assays were monitored by LC-MS/MS on an API 4000 triple quadrupole mass spec with TurboIon Spray (Applied Biosystem) coupled with Prominenece UFLC(Shimazu). The level of SAH production were then normalized based on the values coming from the positive and negative controls to give percent enzyme activities. The data were then fit to a dose response equation using the program Helios (Novartis) to get the IC50 values of the test compounds.

Compound | pIC50 [1] | pIC50 [2] | pIC50 [4] | pIC50 [3]
CCOC(=O)[C@H](N)CCCOc1ccc(Cl)c(Cl)c1Cn1cnc2c(N)ncnc21 [Example 29, Ethyl (R)-2-amino-5-(2-((6-amino-9H-purin-9-yl)methyl)-3,4-dichlorophenoxy)pentanoate] | > 5.70 | > 7.22 | > 7.30 | > 5.72
COC(=O)[C@H](N)CCCOc1ccc(Cl)c(Cl)c1Cc1cnc2c(N)ncnn12 [Example 34, Methyl (R)-2-amino-5-(2-((4-aminoimidazo[2,1-f][1,2,4]triazin-7-yl)methyl)-3,4-dichlorophenoxy)pentanoate] | > 5.70 | – | 7.00 to 7.30 | > 5.72
COCCNC(=O)[C@H](N)CCCOc1ccc(Cl)c(Cl)c1Cn1cnc2c(N)ncnc21 [Example 41, (R)-2-amino-5-(2-((6-amino-9H-purin-9-yl)methyl)-3,4-dichlorophenoxy)-N-(2-methoxyethyl) pentanamide] | > 5.70 | – | 7.00 to 7.30 | > 5.72
Nc1ncnc2c1ncn2Cc1c(OCCC[C@@H](N)C(=O)NC2CC2)ccc(Cl)c1Cl [Example 42, (R)-2-amino-5-(2-((6-amino-9H-purin-9-yl)methyl)-3,4-dichlorophenoxy)-N-cyclopropylpentanamide] | > 5.70 | > 7.22 | > 7.30 | > 5.72
Nc1ncnc2c1ncn2Cc1c(OCCC[C@@H](N)c2nc[nH]n2)ccc(Cl)c1Cl [Example 48, (R)-9-(6-(4-amino-4-(1H-1,2,4-triazol-3-yl)butoxy)-2,3-dichlorobenzyl)-9H-purin-6-amine] | > 5.70 | > 7.22 | > 7.30 | > 5.72
Cc1nnc([C@H](N)CCCOc2ccc(Cl)c(Cl)c2Cn2cnc3c(N)ncnc32)s1 [Example 50, (R)-9-(6-(4-amino-4-(5-methyl-1,3,4-thiadiazol-2-yl)butoxy)-2,3-dichlorobenzyl)-9H-purin-6-amine] | < 5.52 | > 7.22 | > 7.30 | < 5.52
Nc1ncnc2c1ncn2Cc1c(OCCC[C@@H](N)c2nnco2)ccc(Cl)c1Cl [Example 51, (R)-9-(6-(4-amino-4-(1,3,4-oxadiazol-2-yl)butoxy)-2,3-dichlorobenzyl)-9H-purin-6-amine] | < 5.52 | 7.00 to 7.22 | < 7.00 | –
CSC[C@H](N)CCCOc1ccc(Cl)c(Cl)c1Cn1cnc2c(N)ncnc21 [Example 52, (R)-9-(6-((4-amino-5-(methylthio)pentyl)oxy)-2,3-dichlorobenzyl)-9H-purin-6-amine] | < 5.52 | < 7.00 | 7.00 to 7.30 | –
CN(C)C[C@H](N)CCCOc1ccc(Cl)c(Cl)c1Cn1cnc2c(N)ncnc21 [Example 53, (R)-5-(2-((6-amino-9H-purin-9-yl)methyl)-3,4-dichlorophenoxy)-N^1,N^1-dimethylpentane-1,2-diamine] | < 5.52 | < 7.00 | < 7.00 | < 5.52

The next lines start with results.

pIC50 [1] | pIC50 [2] | pIC50 [4] | Compound | pIC50 [3]
5.52 to 5.70 | > 7.22 | > 7.30 | COC[C@H](N)CCCOc1ccc(Cl)c(Cl)c1Cn1cnc2c(N)ncnc21 [Example 1, (R)-9-(6-((4-amino-5-methoxypentyl)oxy)-2,3-dichlorobenzyl)-9H-purin-6-amine] | < 5.52
< 5.52 | > 7.22 | 7.00 to 7.30 | COC[C@H](N)CCCOc1ccc2cc(Br)ccc2c1Cn1cnc2c(N)ncnc21 [Example 20, (R)-9-((2-((4-amino-5-methoxypentyl)oxy)-6-bromonaphthalen-1-yl)methyl)-9H-purin-6-amine] | < 5.52
5.52 to 5.70 | > 7.22 | > 7.30 | Nc1ncnc2c1ncn2Cc1c(OCCC[C@@H](N)C(=O)O)ccc(Cl)c1Cl [Example 23, (R)-2-amino-5-(2-((6-amino-9H-purin-9-yl)methyl)-3,4-dichlorophenoxy)pentanoic acid] | > 5.72
> 5.70 | > 7.22 | > 7.30 | CS(=O)(=O)NC(=O)[C@H](N)CCCOc1ccc(Cl)c(Cl)c1Cn1cnc2c(N)ncnc21 [Example 43, (R)-2-amino-5-(2-((6-amino-9H-purin-9-yl)methyl)-3,4-dichlorophenoxy)-N-(methylsulfonyl)pentanamide] | > 5.72
5.52 to 5.70 | 7.00 to 7.22 | 7.00 to 7.30 | Nc1ncnc2c1ncn2Cc1c(OCCC[C@@H](N)CO)ccc(Cl)c1Cl [Example 45, (R)-2-amino-5-(2-((6-amino-9H-purin-9-yl)methyl)-3,4-dichlorophenoxy)pentan-1-ol] | –
< 5.52 | < 7.00 | < 7.00 | COCCOC[C@H](N)CCCOc1ccc(Cl)c(Cl)c1Cn1cnc2c(N)ncnc21 [Example 47, (R)-9-(6-((4-amino-5-(2-methoxyethoxy)pentyl)oxy)-2,3-dichlorobenzyl)-9H-purin-6-amine] | –
